Assay results published in US11773092B1, “Pyrido[3,4-b]indol-1-one compounds as antibacterial agents” (KING FAISAL UNIVERSITY, priority 2023, dated 2023).
Values after ≈ are worked out from the molar mass of the structure shown. Where two headings read alike, the source gives them in different places.

Tests used:
[1] = test system: Pseudomonas aeruginosa MTCC 741; assay: In vitro antibacterial activity (CLSI M07-A10 dilution MIC); assay type: cell-based; settings: MTCC741
Excerpt: (§1) Staphylococcus epidermidis, Bacillus subtilis, Enterococcus faecium, Enterococcus faecium resistant to VRE, and Gram-negative organisms including Klebsiella pneumonia, Escherichia coli, and Pseudomonas aeruginosa.

[2] = test system: Bacillus subtilis MTCC 441; assay: as above; assay type: cell-based; settings: MTCC441
Excerpt: as §1

[3] = test system: Staphylococcus epidermidis; assay: as above; assay type: cell-based
Excerpt: as §1

[4] = test system: Klebsiella pneumonia MTCC 618; assay: as above; assay type: cell-based; settings: Klebsiella pneumoniae, MTCC618
Excerpt: as §1

[5] = test system: Staphylococcus aureus ATCC 29213; assay: as above; assay type: cell-based; settings: ATCC29213
Excerpt: as §1

[6] = test system: Staphylococcus aureus ATCC BAA-1556 (MERSA resistant); assay: as above; assay type: cell-based; settings: ATCCBAA1556
Excerpt: as §1

[7] = test system: Enterococcus faecium ATCC 35667; assay: as above; assay type: cell-based; settings: ATCC35667
Excerpt: as §1

[8] = test system: Enterococcus faecium ATCC 51559 (VRE resistant); assay: as above; assay type: cell-based
Excerpt: as §1

[9] = test system: Escherichia coli MTCC 443; assay: as above; assay type: cell-based
Excerpt: as §1

[10] = test system: Mycobacterium tuberculosis H37Rv strain; assay: Anti-tubercular alamar blue microplate MIC; assay type: cell-based; settings: 168 h, M. tuberculosis H37Rv, seven days incubation, read-out: anti-mycobacterial activity (MIC)
DNA gyrase from E. coli = target: T1, DNA gyrase from E. coli (Escherichia coli, UniProt P0AES4+P0AES6); assay: Inhibitory activity on E. coli DNA gyrase (Inspiralis assay); assay type: biochemical
T1 construct: purchased Inspiralis
Protocol: Inhibitory potencies were investigated utilizing the Inspiralis assay on streptavidin-coated 96-well microtiter plates. First, the plates were rehydrated with buffer (20 mM Tris-HCl with pH 7.6, 0.01% w/v BSA, 0.05% v/v Tween 20, 137 mM NaCl) and the biotinylated oligonucleotide was then immobilized. After washing off the unbound oligonucleotide, the enzyme test was performed. […] Reaction solutions were incubated at 37° C. for 30 min. After that, the TF buffer (50 mM NaOAc with pH 5.0, 50 mM NaCl and 50 mM MgCl2) was added to terminate the enzymatic reaction. After additional incubation for 30 min at rt, during which biotinoligonucleotide-plasmid triplex was formed, the unbound plasmid was washed off using TF buffer and SybrGOLD in T10 buffer (10 mM Tris HCl with pH 8.0 and 1 mM EDTA) was added. […] Initial screening was done at 100 or 10 μM concentration of inhibitors. […] GraphPad Prism software was used to calculate the IC50 values. The result is given as the average value of three independent measurements.

[11] = Escherichia coli MTCC 443 + efflux pump inhibitor PAβN (200 μg/mL)

T1 sequence (P0AES4 whole entry, one chain of several): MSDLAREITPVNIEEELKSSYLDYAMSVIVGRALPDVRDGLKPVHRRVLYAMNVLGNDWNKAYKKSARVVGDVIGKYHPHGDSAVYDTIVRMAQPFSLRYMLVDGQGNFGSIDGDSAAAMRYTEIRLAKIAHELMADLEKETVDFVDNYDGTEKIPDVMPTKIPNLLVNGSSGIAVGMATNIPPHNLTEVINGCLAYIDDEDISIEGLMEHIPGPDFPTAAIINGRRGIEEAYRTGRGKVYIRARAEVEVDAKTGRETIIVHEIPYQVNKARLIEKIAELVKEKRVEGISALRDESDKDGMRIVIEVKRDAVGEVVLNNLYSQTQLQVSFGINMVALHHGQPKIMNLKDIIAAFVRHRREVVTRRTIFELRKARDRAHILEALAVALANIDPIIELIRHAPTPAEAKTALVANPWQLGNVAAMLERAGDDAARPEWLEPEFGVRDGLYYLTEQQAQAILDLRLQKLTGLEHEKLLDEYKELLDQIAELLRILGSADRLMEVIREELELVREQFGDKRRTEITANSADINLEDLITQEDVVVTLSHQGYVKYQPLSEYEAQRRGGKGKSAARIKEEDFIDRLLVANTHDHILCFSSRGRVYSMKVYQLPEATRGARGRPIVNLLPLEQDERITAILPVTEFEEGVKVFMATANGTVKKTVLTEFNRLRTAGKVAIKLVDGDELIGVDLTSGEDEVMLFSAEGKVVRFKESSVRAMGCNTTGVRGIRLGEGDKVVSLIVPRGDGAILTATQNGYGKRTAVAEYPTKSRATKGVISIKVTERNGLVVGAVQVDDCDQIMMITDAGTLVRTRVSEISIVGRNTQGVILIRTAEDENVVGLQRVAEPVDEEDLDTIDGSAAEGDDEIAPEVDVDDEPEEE

Structure (SMILES): CN[C@H](CC(C)C)C(=O)N[C@H]1C(=O)N[C@@H](CC(N)=O)C(=O)N[C@H]2C(=O)N[C@H]3C(=O)N[C@H](C(=O)N[C@H](C(=O)O)c4cc(O)cc(O)c4-c4cc3ccc4O)[C@H](O)c3ccc(c(Cl)c3)Oc3cc2cc(c3O[C@@H]2O[C@H](CO)[C@@H](O)[C@H](O)[C@H]2O[C@H]2C[C@](C)(N)[C@H](O)[C@H](C)O2)Oc2ccc(cc2Cl)[C@H]1O [Vancomycin, reference compound]
- MIC ([1]; Pseudomonas aeruginosa): > 128 µg/mL
- MIC ([2]; Bacillus subtilis): 0.5 µg/mL (≈ 0.345 µM)
- MIC [3]: 1 µg/mL (≈ 0.69 µM)
- MIC [4]: > 128 µg/mL
- MIC ([5]; Staphylococcus aureus): 1 µg/mL (≈ 0.69 µM)
- MIC ([6]; Staphylococcus aureus): 1 µg/mL (≈ 0.69 µM)
- MIC ([7]; Enterococcus faecium): 0.5 µg/mL (≈ 0.345 µM)
- MIC ([8]; Enterococcus faecium): > 128 µg/mL
- MIC [9, 11]: >128 µg/mL
- MIC ([9]; Escherichia coli, MTCC443): > 128 µg/mL

Structure (SMILES): CCCCCN(C)Cc1cc(C(=O)O)ccc1-n1ccc2c([nH]c3c(NC)cc(F)cc32)c1=O [Compound 6, 4-(6-fluoro-8-(methylamino)-1-oxo-1,9-dihydro-2H-pyrido[3,4-b]indol-2-yl)-3-((methyl(pentyl)amino)methyl)benzoic acid]
- MIC [10]: 8 µg/mL (≈ 17.2 µM)
- IC50 (DNA gyrase from E. coli): 18 nM
- MIC ([1]; Pseudomonas aeruginosa MTCC 741, read-out: MIC): 0.75 µg/mL (≈ 1.61 µM)
- MIC ([2]; Bacillus subtilis MTCC 441, read-out: MIC): 0.5 µg/mL (≈ 1.08 µM)
- MIC ([3]; read-out: MIC): 0.75 µg/mL (≈ 1.61 µM)
- MIC ([4]; Klebsiella pneumonia MTCC 618, read-out: MIC): 1 µg/mL (≈ 2.15 µM)
- MIC ([5]; Staphylococcus aureus ATCC 29213, read-out: MIC): 0.75 µg/mL (≈ 1.61 µM)
- MIC ([6]; Staphylococcus aureus ATCC BAA-1556 (MERSA resistant), read-out: MIC): 0.75 µg/mL (≈ 1.61 µM)
- MIC ([7]; Enterococcus faecium ATCC 35667, read-out: MIC): 0.5 µg/mL (≈ 1.08 µM)
- MIC ([8]; Enterococcus faecium ATCC 51559 (VRE resistant), read-out: MIC): 0.5 µg/mL (≈ 1.08 µM)
- MIC [9, 11]: 0.5 µg/mL
- MIC ([9]; MTCC443, Escherichia coli MTCC 443, read-out: MIC): 8 µg/mL (≈ 17.2 µM)
